Assay results from PubChem BioAssay (NCI).
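Interpolation was linear, between the two tested concentrations surrounding the appropriate level; five concentrations were tested over 48 hours in 96-well plates. At the GI50, growth is halved. TGI denotes the concentration required for complete inhibition of growth.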

Key:
Test in all cases: NCI-60 cell line screen, 48 h; in the data active means GI50 below about 0.43 µM; inactive means the rest
[1] = tested on: NCI/ADR-RES ovarian
[2] = tested on: HT29 colon
[3] = tested on: RXF 393 renal
[4] = tested on: SNB-19 CNS
[5] = tested on: NCI-H460 lung
[6] = tested on: SK-OV-3 ovarian
[7] = tested on: DU-145 prostate
[8] = tested on: SNB-75 CNS
[9] = tested on: HCT-15 colon
[10] = tested on: EKVX NSCLC
[11] = tested on: OVCAR-5 ovarian
[12] = tested on: HOP-62 NSCLC
[13] = tested on: T-47D breast
[14] = tested on: HCC-2998 colon
[15] = tested on: HCT-116 colon
[16] = tested on: HL-60(TB) leukemia
[17] = tested on: MDA-MB-231 breast
[18] = tested on: A549 NSCLC
[19] = tested on: HS 578T breast
[20] = tested on: BT-549 breast
[21] = tested on: CCRF-CEM leukemia
[22] = tested on: SF-539 CNS
[23] = tested on: UACC-257 melanoma
[24] = tested on: PC-3 prostate
[25] = tested on: OVCAR-3 ovarian
[26] = tested on: CAKI-1 renal
[27] = tested on: 786-0 renal
[28] = tested on: SF-268 CNS
[29] = tested on: U251 CNS
[30] = tested on: K-562 leukemia
[31] = tested on: OVCAR-8 ovarian
[32] = tested on: HOP-92 NSCLC
[33] = tested on: SN12C renal
[34] = tested on: SK-MEL-28 melanoma
[35] = tested on: LOX IMVI melanoma
[36] = tested on: COLO 205 colon
[37] = tested on: NCI-H23 lung
[38] = tested on: SR leukemia
[39] = tested on: SW-620 colon
[40] = tested on: MCF7 breast
[41] = tested on: UACC-62 melanoma
[42] = tested on: UO-31 renal
[43] = tested on: NCI-H226 lung
[44] = tested on: M14 melanoma
[45] = tested on: MOLT-4 leukemia
[46] = tested on: SK-MEL-5 melanoma
[47] = tested on: OVCAR-4 ovarian
[48] = tested on: TK-10 renal
[49] = tested on: ACHN renal
[50] = tested on: SF-295 CNS
[51] = tested on: KM12 colon
[52] = tested on: SK-MEL-2 melanoma
[53] = tested on: A498 renal
[54] = tested on: IGROV1 ovarian
[55] = tested on: MALME-3M melanoma
[56] = tested on: RPMI-8226 leukemia
[57] = tested on: NCI-H522 lung
[58] = tested on: MDA-MB-435

Cc1c[nH]c(=O)n(Cc2nnc(CCC(=O)c3nc4ccccc4[nH]3)o2)c1=O
> 53 µM: TGI [17]
> 43.1 µM: TGI [2] | TGI [5]
13.2 µM: TGI [6]
> 42.5 µM: TGI [29]
3.12 µM: TGI [44]
48.7 µM: TGI [20]
> 33.1 µM: TGI [51]
inactive: GI50 [1] 14.7 µM | GI50 [3] 0.697 µM | GI50 [4] 1.27 µM | GI50 [6] 0.46 µM | GI50 [9] 8.93 µM | GI50 [10] 1.51 µM | GI50 [11] 0.879 µM | GI50 [12] 0.967 µM | GI50 [13] 1.03 µM | GI50 [16] 0.966 µM | GI50 [17] 0.671 µM | GI50 [18] 0.475 µM | GI50 [20] 0.717 µM | GI50 [21] 0.459 µM | GI50 [22] 0.799 µM | GI50 [23] 0.787 µM | GI50 [24] 0.477 µM | GI50 [26] 7.22 µM | GI50 [27] 1.98 µM | GI50 [28] 1.5 µM | GI50 [30] 1.03 µM | GI50 [31] 0.661 µM | GI50 [32] 1.44 µM | GI50 [33] 1.12 µM | GI50 [34] 0.533 µM | GI50 [35] 0.439 µM | GI50 [37] 0.432 µM | GI50 [38] 0.447 µM | GI50 [39] 0.483 µM | GI50 [41] 0.721 µM | GI50 [42] 2.4 µM | GI50 [43] 3.48 µM | GI50 [44] 0.492 µM | GI50 [45] 1.69 µM | GI50 [47] 0.629 µM | GI50 [48] 3.68 µM | GI50 [49] 7.56 µM | GI50 [50] 0.728 µM | GI50 [52] 0.887 µM | GI50 [54] 0.575 µM | GI50 [55] 1.14 µM
2.3 µM: TGI [19]
7.14 µM: TGI [14]
38.3 µM: TGI [27]
3.89 µM: TGI [53]
1.26 µM: TGI [25]
1.4 µM: TGI [57]
9.48 µM: TGI [50]
67.7 µM: TGI [46]
29.9 µM: TGI [22]
> 80.6 µM: TGI [48]
> 88.1 µM: TGI [41]
> 100 µM: TGI [4] | TGI [9] | TGI [10] | TGI [11] | TGI [12] | TGI [13] | TGI [16] | TGI [18] | TGI [21] | TGI [23] | TGI [24] | TGI [26] | TGI [28] | TGI [30] | TGI [31] | TGI [32] | TGI [33] | TGI [34] | TGI [35] | TGI [38] | TGI [39] | TGI [40] | TGI [42] | TGI [43] | TGI [45] | TGI [47] | TGI [49] | TGI [55] | TGI [56]
active: GI50 [2] 0.194 µM | GI50 [5] 0.387 µM | GI50 [7] 0.337 µM | GI50 [8] 0.0558 µM | GI50 [14] 0.421 µM | GI50 [15] 0.251 µM | GI50 [19] 0.285 µM | GI50 [25] 0.315 µM | GI50 [29] 0.372 µM | GI50 [36] 0.299 µM | GI50 [40] 0.205 µM | GI50 [46] 0.33 µM | GI50 [51] 0.414 µM | GI50 [53] 0.296 µM | GI50 [56] 0.34 µM | GI50 [57] 0.281 µM
63.8 µM: TGI [1]
> 23.9 µM: TGI [52]
1.04 µM: TGI [36]
0.806 µM: TGI [8]
3.83 µM: TGI [3]
> 89.8 µM: TGI [15]
1.21 µM: TGI [7]
> 90.4 µM: TGI [54]

C#CCOC(=O)/C=C/C(=O)Oc1ccc2c(C)cc(=O)oc2c1
inactive: GI50 [1] > 100 µM | GI50 [2] > 100 µM | GI50 [3] > 100 µM | GI50 [4] > 100 µM | GI50 [5] > 100 µM | GI50 [6] > 100 µM | GI50 [7] > 100 µM | GI50 [8] > 100 µM | GI50 [9] > 100 µM | GI50 [10] > 100 µM | GI50 [58] > 100 µM | GI50 [11] > 100 µM | GI50 [12] > 100 µM | GI50 [13] > 100 µM | GI50 [14] 40.8 µM | GI50 [15] > 100 µM | GI50 [16] > 100 µM | GI50 [17] > 100 µM | GI50 [18] > 100 µM | GI50 [19] > 100 µM | GI50 [20] > 100 µM | GI50 [21] > 100 µM | GI50 [22] > 100 µM | GI50 [23] > 100 µM | GI50 [24] > 100 µM | GI50 [25] > 100 µM | GI50 [26] > 100 µM | GI50 [27] > 100 µM | GI50 [28] > 100 µM | GI50 [29] > 100 µM | GI50 [30] > 100 µM | GI50 [31] > 100 µM | GI50 [33] > 100 µM | GI50 [34] > 100 µM | GI50 [35] > 100 µM | GI50 [36] > 100 µM | GI50 [37] > 100 µM | GI50 [38] > 100 µM | GI50 [39] > 100 µM | GI50 [40] > 100 µM | GI50 [41] > 100 µM | GI50 [42] > 100 µM | GI50 [43] > 100 µM | GI50 [44] > 100 µM | GI50 [45] > 100 µM | GI50 [46] > 100 µM | GI50 [47] > 100 µM | GI50 [48] > 100 µM | GI50 [49] > 100 µM | GI50 [50] > 100 µM | GI50 [51] > 100 µM | GI50 [52] > 100 µM | GI50 [53] > 100 µM | GI50 [54] > 100 µM | GI50 [55] > 100 µM | GI50 [56] > 100 µM | GI50 [57] > 100 µM
> 100 µM: TGI [1] | TGI [2] | TGI [3] | TGI [4] | TGI [5] | TGI [6] | TGI [7] | TGI [8] | TGI [9] | TGI [10] | TGI [58] | TGI [11] | TGI [12] | TGI [13] | TGI [14] | TGI [15] | TGI [16] | TGI [17] | TGI [18] | TGI [19] | TGI [20] | TGI [21] | TGI [22] | TGI [23] | TGI [24] | TGI [25] | TGI [26] | TGI [27] | TGI [28] | TGI [29] | TGI [30] | TGI [31] | TGI [33] | TGI [34] | TGI [35] | TGI [36] | TGI [37] | TGI [38] | TGI [39] | TGI [40] | TGI [41] | TGI [42] | TGI [43] | TGI [44] | TGI [45] | TGI [46] | TGI [47] | TGI [48] | TGI [49] | TGI [50] | TGI [51] | TGI [52] | TGI [53] | TGI [54] | TGI [55] | TGI [56] | TGI [57]
